Several values for one entry are separate records, joined by “and”; a condition that tells them apart may be missing. Identical values can stand only once. Entries after “also recorded” stand apart in the source; their conditions may differ.
Assays:
Type in all cases: in vivo, human
[1] = tested on: patients with advanced Alzheimer's disease; test: Severe Impairment Battery (SIB) in double-blind, randomized, placebo-controlled trial; design: key to SIB Total LS Mean change from baseline (MMRM) / SIB Total LS Mean change (MMRM with memantine covariate) / SIB Delta from baseline, Mean (unadjusted): change from baseline in SIB total score; low scores = greater impairment; conditions: for SIB Total Difference vs. Placebo (MMRM) / SIB Total LS Mean change from baseline (MMRM): 20 μg iv; for SIB Delta from baseline, Mean (unadjusted): Low dose (20)
Protocol: In a double-blind, randomized, placebo-controlled trial, bryostatin was administered by intravenous infusion (˜45 minutes) to patients with advanced Alzheimer's disease for 12 weeks at doses of 20 or 40 μg. Randomization was stratified at baseline by severe (MMSE-2, 4-9) and moderate (MMSE-2, 10-15) dementia, wherein MMSE-2 refers to Mini-Mental State Examination, version 2. The MMSE or Folstein test is a 30-point questionnaire that is used extensively in clinical and research settings to measure cognitive impairment. Low scores indicate greater impairment. Version 2 of the MMSE was published in 2010, expanding the original questionnaire's usefulness in populations with milder forms of cognitive impairment. […] Importantly, this cognitive improvement persisted and increased 30 days after all bryostatin dosing had been completed.
(§1) Adults aged 55-85 with cognitive deficits present for at least 2 years, MMSE-2 of 4-15, inclusive, and a diagnosis of Alzheimer's dementia were randomly assigned to receive blinded intravenous infusions of bryostatin 24 μg or matching placebo at weeks 0 and 1. The 24 μg and 48 μg doses during the first two weeks of the 20 and 40 μg protocols respectively were considered to be “loading” doses thought to be beneficial from prior experience with Compassionate Use trial patients. Nelson et al., Alzheimers Dis. 2017 58: 521-535. In one arm, the two 24 μg doses were followed by 20 μg doses at weeks 5, 7, 9 and 11 with the Severe Impairment Battery (SIB) measured at baseline and weeks 5, 9, 13, and 15. In a second arm, the two 48 μg doses at weeks 0 and 1 were followed by 40 μg doses at weeks 5, 7, 9, and 11 with the SIB measured at baseline and weeks 5, 9, 13, and 15. The subjects were stratified by MMSE-2 in two strata: Stratum 1 (4-9) and Stratum 2 (10-15). The first primary endpoint was safety and tolerability, assessed by treatment emergent adverse events (TEAEs) with a sample size of 150 subjects randomized 1:1:1. Although efficacy was the secondary measure, the primary efficacy endpoint was SIB improvement at week 13 evaluated using a mixed model for repeated measures. A secondary efficacy endpoint was ADCS-ADL Sev. The primary safety population included all subjects who received at least 1 dose of study drug, and efficacy was evaluated in a modified intent to treat (mITT) population that received at least 1 dose of study drug and had at least one treatment evaluation. Efficacy was evaluated both as a primary end-point in the modified intent-to-treat (mITT) population and also as a primary end point in a Completers population that included all patients that completed the entire protocols as described above.
The SIB efficacy measurement at 30 days (week 15) post dosing—after all dosing had been completed (last dose administered at week 11)—was a pre-specified exploratory endpoint. Week 15 results were only included for subjects who were not re-randomized. The mixed model assumes missing at random, but order of enrollment in the trial was not random. Since order of enrollment was not random, the assumption of missing at random is not met. For this reason, only including week 15 for those who were not re-randomized is an appropriate way to estimate week 15 results, but not an appropriate way to estimate results at the earlier visits. For this reason, estimates up through week 13 are from a mixed model that only included data through week 13 and the week 15 estimates are from a separate model. Results were generated using a mixed model with repeated measures predicting change from baseline in SIB Total Score as the response variable and using baseline score, baseline MMSE strata, treatment, visit (categorical), and visit (treatment) as predictors. […]

[2] = tested on: patients with advanced Alzheimer's disease; test: ADCS-ADL-SIV (secondary efficacy endpoint) in the same trial
Protocol: as §1

[3] = tested on: patients with advanced Alzheimer's disease; test: Safety and tolerability (treatment emergent adverse events) in the same trial; conditions: 40 μg iv, 12 weeks
Protocol: Adults aged 55-85 with cognitive deficits present for at least 2 years, MMSE-2 of 4-15, inclusive, and a diagnosis of Alzheimer's dementia were randomly assigned to receive blinded intravenous infusions of bryostatin 24 μg or matching placebo at weeks 0 and 1. The 24 μg and 48 μg doses during the first two weeks of the 20 and 40 μg protocols respectively were considered to be “loading” doses thought to be beneficial from prior experience with Compassionate Use trial patients. Nelson et al., Alzheimers Dis. 2017 58: 521-535. In one arm, the two 24 μg doses were followed by 20 μg doses at weeks 5, 7, 9 and 11 with the Severe Impairment Battery (SIB) measured at baseline and weeks 5, 9, 13, and 15. In a second arm, the two 48 μg doses at weeks 0 and 1 were followed by 40 μg doses at weeks 5, 7, 9, and 11 with the SIB measured at baseline and weeks 5, 9, 13, and 15. The subjects were stratified by MMSE-2 in two strata: Stratum 1 (4-9) and Stratum 2 (10-15). The first primary endpoint was safety and tolerability, assessed by treatment emergent adverse events (TEAEs) with a sample size of 150 subjects randomized 1:1:1. Although efficacy was the secondary measure, the primary efficacy endpoint was SIB improvement at week 13 evaluated using a mixed model for repeated measures. A secondary efficacy endpoint was ADCS-ADL Sev. […]

[4] = Week 15 (30 days post dosing), Completer
[5] = Week 15 (30 days post dosing), FAS
[6] = 20 μg, Week 5, Completer, With Memantine
[7] = 20 μg, Week 5, Completer, Without Memantine
[8] = 20 μg, Week 5, FAS, With Memantine
[9] = 20 μg, Week 5, FAS, Without Memantine
[10] = 20 μg, Week 9, Completer, With Memantine
[11] = 20 μg, Week 9, Completer, Without Memantine
[12] = 20 μg, Week 9, FAS, With Memantine
[13] = 20 μg, Week 9, FAS, Without Memantine
[14] = 20 μg, Week 13, Completer, With Memantine
[15] = 20 μg, Week 13, Completer, Without Memantine
[16] = 20 μg, Week 13, FAS, With Memantine
[17] = 20 μg, Week 13, FAS, Without Memantine
[18] = 20 μg, Week 15, Completer, With Memantine
[19] = 20 μg, Week 15, Completer, Without Memantine
[20] = 20 μg, Week 15, FAS, With Memantine
[21] = 20 μg, Week 15, FAS, Without Memantine

CCC/C=C/C=C/C(=O)O[C@H]1/C(=C/C(=O)OC)C[C@H]2C[C@H]([C@@H](C)O)OC(=O)C[C@H](O)C[C@@H]3C[C@H](OC(C)=O)C(C)(C)[C@](O)(C[C@@H]4C/C(=C/C(=O)OC)C[C@H](/C=C/C(C)(C)[C@]1(O)O2)O4)O3 [Bryostatin, bryostatin-1]
SIB versus baseline and placebo (in words) ([1]; 20 μg dose, throughout the 13-week trial): sustained improvement in SIB
SIB Total Difference vs. Placebo (MMRM) ([1]; Week 5, Completer): 4.00
SIB Total LS Mean change from baseline (MMRM) ([1]; Week 5, Completer): 1.67
SIB Total Difference vs. Placebo (MMRM) ([1]; Week 5, FAS): 2.96
SIB Total LS Mean change from baseline (MMRM) ([1]; Week 5, FAS): 1.18
SIB Total Difference vs. Placebo (MMRM) ([1]; Week 9, Completer): 1.85
SIB Total LS Mean change from baseline (MMRM) ([1]; Week 9, Completer): 1.28
SIB Total Difference vs. Placebo (MMRM) ([1]; Week 9, FAS): 1.03
SIB Total LS Mean change from baseline (MMRM) ([1]; Week 9, FAS): 0.94
SIB Total Difference vs. Placebo (MMRM) ([1]; Week 13, Completer): 2.63
SIB Total LS Mean change from baseline (MMRM) ([1]; Week 13, Completer): 1.51
SIB Total Difference vs. Placebo (MMRM) ([1]; Week 13, Completer, listed as bryostatin): 2.6
SIB Total Difference vs. Placebo (MMRM) ([1]; Week 13, FAS): 1.94
SIB Total LS Mean change from baseline (MMRM) ([1]; Week 13, FAS): 1.16
SIB Total Difference vs. Placebo (MMRM) [1, 4]: 4.09
SIB Total LS Mean change from baseline (MMRM) [1, 4]: 1.96
SIB Total Difference vs. Placebo (MMRM) ([1]; Week 15 (30 days post dosing), Completer, listed as bryostatin): 4.0 and 4.09
SIB Total Difference vs. Placebo (MMRM) [1, 5]: 3.59
SIB Total LS Mean change from baseline (MMRM) [1, 5]: 1.77
SIB Total Difference vs. Placebo (MMRM with memantine covariate) [1, 6]: 2.94
SIB Total LS Mean change (MMRM with memantine covariate) [1, 6]: 0.61
SIB Total Difference vs. Placebo (MMRM with memantine covariate) [1, 7]: 5.38
SIB Total LS Mean change (MMRM with memantine covariate) [1, 7]: 3.22
SIB Total Difference vs. Placebo (MMRM with memantine covariate) [1, 8]: 1.96
SIB Total LS Mean change (MMRM with memantine covariate) [1, 8]: 0.26
SIB Total Difference vs. Placebo (MMRM with memantine covariate) [1, 9]: 4.48
SIB Total LS Mean change (MMRM with memantine covariate) [1, 9]: 2.74
SIB Total Difference vs. Placebo (MMRM with memantine covariate) [1, 10]: 0.90
SIB Total LS Mean change (MMRM with memantine covariate) [1, 10]: −0.16
SIB Total Difference vs. Placebo (MMRM with memantine covariate) [1, 11]: 2.66
SIB Total LS Mean change (MMRM with memantine covariate) [1, 11]: 3.34
SIB Total Difference vs. Placebo (MMRM with memantine covariate) [1, 12]: 0.09
SIB Total LS Mean change (MMRM with memantine covariate) [1, 12]: −0.33
SIB Total Difference vs. Placebo (MMRM with memantine covariate) [1, 13]: 2.08
SIB Total LS Mean change (MMRM with memantine covariate) [1, 13]: 2.95
SIB Total Difference vs. Placebo (MMRM with memantine covariate) [1, 14]: 0.56
SIB Total LS Mean change (MMRM with memantine covariate) [1, 14]: −0.39
SIB Total Difference vs. Placebo (MMRM with memantine covariate) [1, 15]: 5.53
SIB Total LS Mean change (MMRM with memantine covariate) [1, 15]: 4.22
SIB Total Difference vs. Placebo (MMRM with memantine covariate) [1, 16]: −0.14
SIB Total LS Mean change (MMRM with memantine covariate) [1, 16]: −0.60
SIB Total Difference vs. Placebo (MMRM with memantine covariate) [1, 17]: 5.11
SIB Total LS Mean change (MMRM with memantine covariate) [1, 17]: 3.83
SIB Total Difference vs. Placebo (MMRM with memantine covariate) [1, 18]: 1.45
SIB Total LS Mean change (MMRM with memantine covariate) [1, 18]: −0.71
SIB Total Difference vs. Placebo (MMRM with memantine covariate) [1, 19]: 6.36
SIB Total LS Mean change (MMRM with memantine covariate) [1, 19]: 6.24
SIB Total Difference vs. Placebo (MMRM with memantine covariate) [1, 20]: 0.79
SIB Total LS Mean change (MMRM with memantine covariate) [1, 20]: −0.83
SIB Total Difference vs. Placebo (MMRM with memantine covariate) [1, 21]: 5.93
SIB Total LS Mean change (MMRM with memantine covariate) [1, 21]: 5.88
Mean slope of SIB over time, Weighted Slope ([1]; 20 μg, weighted by number of non-zero SIB scores, second column group (memantine exposed, stratum not given)): −0.099
SIB versus baseline and placebo (in words) ([1]; 40 μg dose): lack of efficacy; also recorded: no SIB improvement
SIB Delta from baseline, Mean (unadjusted) ([1]; Ave of Week 13 and 15, Memantine Exposed Patients, FAS): −0.727
SIB Delta from baseline, Mean (unadjusted) ([1]; Ave of Week 13 and 15, Memantine Treatment-Naïve Patients, FAS): 5.406
SIB Delta from baseline, Mean (unadjusted) ([1]; Week 5, Memantine Exposed Patients, FAS): 0.077
SIB Delta from baseline, Mean (unadjusted) ([1]; Week 5, Memantine Treatment-Naïve Patients, FAS): 3.444
SIB Delta from baseline, Mean (unadjusted) ([1]; Week 9, Memantine Exposed Patients, FAS): −0.087
SIB Delta from baseline, Mean (unadjusted) ([1]; Week 9, Memantine Treatment-Naïve Patients, FAS): 3.467
SIB Delta from baseline, Mean (unadjusted) ([1]; Week 13, Memantine Exposed Patients, FAS): −0.545
SIB Delta from baseline, Mean (unadjusted) ([1]; Week 13, Memantine Treatment-Naïve Patients, FAS): 4.500
Treatment effect on SIB at 13/15 weeks from baseline (ANCOVA coefficient, 20 μg vs placebo) ([1]; Memantine Exposed, adjusted for Base SIB, MMSE-2): −0.620
Treatment effect on SIB at 13/15 weeks from baseline (ANCOVA coefficient, 20 μg vs placebo) ([1]; Memantine Exposed, adjusted for Baseline SIB): −0.531
Treatment effect on SIB at 13/15 weeks from baseline (ANCOVA coefficient, 20 μg vs placebo) ([1]; Memantine Naïve, adjusted for Base SIB, MMSE-2): 5.923
Treatment effect on SIB at 13/15 weeks from baseline (ANCOVA coefficient, 20 μg vs placebo) ([1]; Memantine Naïve, adjusted for Baseline SIB): 5.426
SIB improvement (in words) ([1]; patients on memantine, week 13 or 15): no SIB improvement
ADCS-ADL, subgroups with and without memantine as background SOC therapy (in words) ([2]; 20 μg): not significantly different above placebo
ADCS-ADL difference from placebo ([2]; 20 μg, completers group): 1.6
ADCS-ADL difference from placebo ([2]; 20 μg, mITT group): 1.4
ADCS-ADL efficacy (in words) ([2]; 40 μg dose): significant for the 20 μg but not the 40 μg dose
Safety results [3]: more adverse events

From patent US11045447B2, “Methods for inducing synaptogenesis with synaptic growth factor activating compounds” ([…], INC., priority 2018, dated 2021)
